Test results taken from US20070049564A1 (Wyeth, priority 2005, published 2007).
In brackets after ≈: the same amount, converted by molar mass. Where two headings read alike, the source gives them in different places.

Experiments:
E. coli GC 4559 = test: MIC, broth microdilution; settings: Escherichia coli
E. faecalis GC 4555 = test: MIC, broth microdilution; settings: Enterococcus faecalis
S. pyogenes GC 4563 = test: MIC, broth microdilution; settings: Streptococcus pyogenes
Staph. aureus Smith = test: In vivo activity (oral, iv; ED50) against Staph. aureus Smith in mice
Description: Representative examples of compounds of Formula I were tested for the oral efficacy using S. aureus Smith in mice.

E. coli GC 2232 = test: MIC, broth microdilution; settings: Escherichia coli
Staph. = test: Range of MIC for Staph. strains, including MRSA; settings: Staphylococcus aureus, MRSA, read-out: Range of MIC, Staph (Mouse Serum)
E. coli GC 2236 = test: MIC, broth microdilution; settings: Escherichia coli
E. faecalis GC 2242 = test: MIC, broth microdilution; settings: Enterococcus faecalis
S. typhimurium GC 2172 = test: MIC, broth microdilution; settings: Salmonella enterica, TYPHIMURIUM
S. aureus GC 2216 = test: MIC, broth microdilution; settings: Staphylococcus aureus
Description: Antimicrobial susceptibility testing. The in vitro activities of the antibiotics are determined by the broth microdilution method as recommended by the National Committee for Clinical Laboratory Standards (NCCLS) (1). Mueller-Hinton II broth (MHBII)(BBL Cockeysville, Md.) is the medium employed in the testing procedures. Microtiter plates containing serial dilutions of each antimicrobial agent are inoculated with each organism to yield the appropriate density (10^5 CFU/ml) in a 100 μl final volume. The plates are incubated for 18-22 hours at 35° C. in ambient air. […] Standard Pharmacological Test Procedures
Presented in Tables I-XIII are representative compounds of Formula I which were evaluated against a panel of 40 selected gram-positive and gram-negative bacteria strains by pre-incubation in water, mouse serum or human serum. Representative compounds were first incubated in mouse serum for an hour prior to the in vitro testing against a panel of selected gram-positive and gram-negative bacteria strains. All compounds were also pre-incubated in water for an hour prior to testing as control. Representative compounds of Formula I were incubated in human serum prior to MIC determination.

S. aureus GC 6466 = test: MIC, broth microdilution; settings: Staphylococcus aureus
S. aureus GC 4536 = test: MIC, broth microdilution; settings: Staphylococcus aureus
E. coli = test: Range of MIC for E. coli strains; settings: Escherichia coli
S. pneumoniae+ GC 4465 = test: MIC, broth microdilution; settings: Streptococcus pneumoniae
E. coli GC 2234 = test: MIC, broth microdilution; settings: Escherichia coli
E. coli GC 2231 = test: MIC, broth microdilution; settings: Escherichia coli
E. coli GC 2235 = test: MIC, broth microdilution; settings: Escherichia coli
E. faecium GC 4556 = test: MIC, broth microdilution; settings: Enterococcus faecium
S. agalactiae GC 4564 = test: MIC, broth microdilution; settings: Streptococcus agalactiae
S. pneumoniae* GC 4465 = test: MIC, broth microdilution; settings: Streptococcus pneumoniae

With `CCCN(CC(=O)Nc1cc(N(C)C)c2c(c1O)C(=O)C1=C(O)[C@]3(O)C(=O)C(C(N)=O)=C(O)C(N(C)C)C3CC1C2)C(=O)OCc1oc(=O)oc1-c1ccccc1` (stereo in doubt) [Example 110, (2-oxo-5-phenyl-1,3-dioxol-4-yl)methyl 2-{[(7R,10aS)-9-(aminocarbonyl)-4,7-bis(dimethylamino)-1,8,10a,11-tetrahydroxy-10,12-dioxo-5,5a,6,6a,7,10,10a,12-octahydrotetracen-2-yl]amino}-2-oxoethyl(propyl)carbamate] as the compound, how does the MIC (E. coli GC 4559; GC4559, pre-incubation in mouse serum) read?
The MIC was 2 µg/mL (≈ 2.53 µM).

What about the MIC (E. coli GC 4559; GC4559, pre-incubation in water) of the same compound?
Its MIC is 2 µg/mL (≈ 2.53 µM).

What about the MIC (E. faecalis GC 4555; GC4555, pre-incubation in mouse serum) of the same compound?
Its MIC is 1 µg/mL (≈ 1.27 µM).

What about the MIC (E. faecalis GC 4555; GC4555, pre-incubation in water) of the same compound?
Its MIC is 2 µg/mL (≈ 2.53 µM).

What about the MIC (S. pyogenes GC 4563; GC4563, pre-incubation in mouse serum) of the same compound?
Its MIC is 0.12 µg/mL (≈ 0.152 µM).

And the MIC (S. pyogenes GC 4563; GC4563, pre-incubation in water)?
Its MIC is under 0.06 µg/mL.

And the ED50 (Staph. aureus Smith; Staphylococcus aureus, in Mus musculus, po, read-out: ED50 Staph Smith SOD)?
The ED50 was 31.9 mg/kg.

What about the ED50 (Staph. aureus Smith; iv, read-out: ED50 Staph Smith SIV) of the same compound?
Its ED50 is 0.6 mg/kg.

What about the MIC (E. coli GC 2232; GC2232, pre-incubation in mouse serum) of the same compound?
Its MIC is 1 µg/mL (≈ 1.27 µM).

What about the MIC (E. coli GC 2232; GC2232, pre-incubation in water) of the same compound?
Its MIC is 2 µg/mL (≈ 2.53 µM).

And the MIC (Staph.)?
The MIC was 1 to 32 µg/mL (≈ 1.27 to 40.5 µM).

What about the MIC (E. coli GC 2236; GC2236, pre-incubation in mouse serum) of the same compound?
Its MIC is 1 µg/mL (≈ 1.27 µM).

And the MIC (E. coli GC 2236; GC2236, pre-incubation in water)?
The MIC was 2 µg/mL (≈ 2.53 µM).

What about the MIC (E. faecalis GC 2242; GC2242, pre-incubation in mouse serum) of the same compound?
Its MIC is 1 µg/mL (≈ 1.27 µM).

And the MIC (E. faecalis GC 2242; GC2242, pre-incubation in water)?
Its MIC is 1 µg/mL (≈ 1.27 µM).

What about the MIC (S. typhimurium GC 2172; pre-incubation in mouse serum) of the same compound?
The MIC was 64 µg/mL (≈ 81 µM).

What about the MIC (S. typhimurium GC 2172; pre-incubation in water) of the same compound?
The MIC was over 64 µg/mL.

What about the MIC (S. aureus GC 2216; GC2216, pre-incubation in mouse serum) of the same compound?
Its MIC is 2 µg/mL (≈ 2.53 µM).

And the MIC (S. aureus GC 2216; GC2216, pre-incubation in water)?
The MIC was 4 µg/mL (≈ 5.06 µM).

What about the MIC (S. aureus GC 6466; GC6466, pre-incubation in mouse serum) of the same compound?
Its MIC is 1 µg/mL (≈ 1.27 µM).

And the MIC (S. aureus GC 6466; GC6466, pre-incubation in water)?
Its MIC is 2 µg/mL (≈ 2.53 µM).

And the MIC (S. aureus GC 4536; GC4536, pre-incubation in mouse serum)?
Its MIC is 4 µg/mL (≈ 5.06 µM).

What about the MIC (S. aureus GC 4536; GC4536, pre-incubation in water) of the same compound?
Its MIC is 4 µg/mL (≈ 5.06 µM).

What about the MIC (E. coli; 20 h, read-out: Range of MIC, E. coli (Mouse Serum)) of the same compound?
Its MIC is 0.5 to 4 µg/mL (≈ 0.633 to 5.06 µM).

What about the MIC (E. coli; read-out: Range of MIC, E. coli (Water)) of the same compound?
Its MIC is 1 to 8 µg/mL (≈ 1.27 to 10.1 µM).

And the MIC (S. pneumoniae+ GC 4465; pre-incubation in mouse serum)?
The MIC was 4 µg/mL (≈ 5.06 µM).

What about the MIC (S. pneumoniae+ GC 4465; pre-incubation in water) of the same compound?
The MIC was 2 µg/mL (≈ 2.53 µM).

What about the MIC (E. coli GC 2234; GC2234, pre-incubation in mouse serum) of the same compound?
The MIC was 1 µg/mL (≈ 1.27 µM).

What about the MIC (E. coli GC 2234; GC2234, pre-incubation in water) of the same compound?
The MIC was 2 µg/mL (≈ 2.53 µM).

And the MIC (E. coli GC 2231; GC2231, pre-incubation in mouse serum)?
The MIC was 4 µg/mL (≈ 5.06 µM).

And the MIC (E. coli GC 2231; GC2231, pre-incubation in water)?
The MIC was 8 µg/mL (≈ 10.1 µM).

What about the MIC (E. coli GC 2235; GC2235, pre-incubation in mouse serum) of the same compound?
The MIC was 0.5 µg/mL (≈ 0.633 µM).

What about the MIC (E. coli GC 2235; GC2235, pre-incubation in water) of the same compound?
Its MIC is 1 µg/mL (≈ 1.27 µM).

What about the MIC (E. faecium GC 4556; GC4556, pre-incubation in mouse serum) of the same compound?
Its MIC is 1 µg/mL (≈ 1.27 µM).

And the MIC (E. faecium GC 4556; GC4556, pre-incubation in water)?
The MIC was 2 µg/mL (≈ 2.53 µM).

And the MIC (S. agalactiae GC 4564; GC4564, pre-incubation in mouse serum)?
Its MIC is 0.25 µg/mL (≈ 0.317 µM).

And the MIC (S. agalactiae GC 4564; GC4564, pre-incubation in water)?
Its MIC is 0.25 µg/mL (≈ 0.317 µM).

What about the MIC (S. pneumoniae* GC 4465; pre-incubation in mouse serum) of the same compound?
Its MIC is 0.25 µg/mL (≈ 0.317 µM).

And the MIC (S. pneumoniae* GC 4465; pre-incubation in water)?
The MIC was 0.12 µg/mL (≈ 0.152 µM).
